As usually defined, the DC50 is the concentration giving 50% degradation.

T1 sequence (Q06187 whole entry): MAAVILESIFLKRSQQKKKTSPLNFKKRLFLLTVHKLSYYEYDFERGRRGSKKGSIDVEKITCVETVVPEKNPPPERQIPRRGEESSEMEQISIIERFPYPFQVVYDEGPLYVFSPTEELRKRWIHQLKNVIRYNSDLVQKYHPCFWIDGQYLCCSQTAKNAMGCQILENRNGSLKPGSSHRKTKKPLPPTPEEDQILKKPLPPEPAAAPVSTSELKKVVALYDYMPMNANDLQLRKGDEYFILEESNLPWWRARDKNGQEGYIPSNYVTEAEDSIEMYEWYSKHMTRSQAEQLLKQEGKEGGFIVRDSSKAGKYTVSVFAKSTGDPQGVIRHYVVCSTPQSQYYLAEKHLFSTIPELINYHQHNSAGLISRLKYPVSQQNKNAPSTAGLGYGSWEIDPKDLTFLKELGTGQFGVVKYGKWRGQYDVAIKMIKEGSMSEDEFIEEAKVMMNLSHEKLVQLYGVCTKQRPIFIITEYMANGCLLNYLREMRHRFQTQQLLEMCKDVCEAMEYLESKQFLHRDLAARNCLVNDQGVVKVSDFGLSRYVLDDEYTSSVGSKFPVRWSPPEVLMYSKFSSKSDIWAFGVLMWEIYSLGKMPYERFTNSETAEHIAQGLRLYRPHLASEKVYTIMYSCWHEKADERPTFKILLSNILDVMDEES

This test concerns the target T1, WT BTK protein (Homo sapiens, UniProt Q06187).
T1 construct: measured for intracellular BTK protein levels by Western blotting; endogenous in cells; host or cells: TMD-8 or RAMOS cells
The test is described as follows: BTK protein degradation assay (Western blotting), WT BTK. The test is classed as cell-based. Conditions: concentration range accounting for 50% degradation of WT BTK protein, TMD-8 or RAMOS cells, 24 hours. Put shortly:
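BTK levels were read by Western blotting (GAPDH and β-actin normalisers) in RIPA lysates of TMD-8 cells exposed to compounds for 24 h at 1×10^6 cells/mL. Results scored in ranges of the concentration producing 50% loss of WT BTK.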
In the case of `Cc1cccc(C)c1Nc1nn(C)c2nc(Nc3ccc4c(c3)CN(C(=O)C3(F)CCN(C(=O)COc5ccc6c(c5)C(=O)N(C5CCC(=O)NC5=O)C6=O)CC3)CC4)ncc12` (stereo not shown) [Compound 248, 5-(2-(4-(7-((3-((2,6-Dimethylphenyl)amino)-1-methyl-1H-pyrazolo[3,4-d]pyrimidin-6-yl)amino)-1,2,3,4-tetrahydroisoquinoline-2-carbonyl)-4-fluoropiperidin-1-yl)-2-oxoethoxy)-2-(2,6-dioxopiperidin-3-yl)isoindoline-1,3-dione], the DC50 was in the range of 0.1 to 10 nM.
Next, `Cc1cccc(C)c1Nc1nn(C)c2nc(Nc3ccc(F)c(C4=CCN(CC5CCN(c6ccc7c(c6)C(=O)N(C6CCC(=O)NC6=O)C7=O)CC5)CC4)c3)ncc12` (stereo not shown) [Compound 250, 5-(4-((4-(5-((3-((2,6-Dimethylphenyl)amino)-1-methyl-1H-pyrazolo[3,4-d]pyrimidin-6-yl)amino)-2-fluorophenyl)-3,6-dihydropyridin-1 (2H)-yl)methyl)piperidin-1-yl)-2-(2,6-dioxopiperidin-3-yl)isoindoline-1,3-dione]: 0.1 to 10 nM; `Cc1cccc(C)c1Nc1nn(C)c2nc(Nc3ccc(C4CCN(C(=O)C5(F)CCN(c6ccc7c(c6)C(=O)N(C6CCC(=O)NC6=O)C7=O)CC5)CC4)cc3)ncc12` (stereo not shown) [Compound 253, 5-(4-(4-(4-((3-((2,6-dimethylphenyl)amino)-1-methyl-1H-pyrazolo[3,4-d]pyrimidin-6-yl)amino)phenyl)piperidine-1-carbonyl)-4-fluoropiperidin-1-yl)-2-(2,6-dioxopiperidin-3-yl)isoindoline-1,3-dione]: 0.1 to 10 nM.
Then `Cc1cccc(C)c1Nc1nn(C)c2nc(Nc3ccc(C4CCN(C(=O)C5(F)CCN(c6cc7c(cc6F)C(=O)N(C6CCC(=O)NC6=O)C7=O)CC5)CC4)cc3)ncc12` (stereo not shown) [Compound 254, 5-(4-(4-(4-((3-((2,6-dimethylphenyl)amino)-1-methyl-1H-pyrazolo[3,4-d]pyrimidin-6-yl)amino)phenyl)piperidine-1-carbonyl)-4-fluoropiperidin-1-yl)-2-(2,6-dioxopiperidin-3-yl)-6-fluoroisoindoline-1,3-dione], with 10 to 1000 nM; and `Cc1cccc(C)c1Nc1nn(C)c2nc(Nc3ccc(N4CCN(CC5CCN(C(=O)c6ccc7c(c6)CN(C6CCC(=O)NC6=O)C7=O)CC5)CC4)cc3)ncc12` (stereo not shown) [Compound 256, 3-(5-(4-((4-(4-((3-((2,6-Dimethylphenyl)amino)-1-methyl-1H-pyrazolo[3,4-d]pyrimidin-6-yl)amino)phenyl)piperazin-1-yl)methyl)piperidine-1-carbonyl)-1-oxoisoindolin-2-yl)piperidin-2,6-one], with 0.1 to 10 nM.
Then `Cc1cccc(C)c1Nc1nn(C)c2nc(Nc3ccc4c(c3)CN(CC3CCN(C(=O)c5ccc6c(c5)CN(C5CCC(=O)NC5=O)C6=O)CC3)CC4)ncc12` (stereo not shown) [Compound 258, 3-(5-(4-((7-((3-((2,6-Dimethylphenyl)amino)-1-methyl-1H-pyrazolo[3,4-d]pyrimidin-6-yl)amino)-3,4-dihydroisoquinolin-2 (1H)-yl)methyl)piperidine-1-carbonyl)-1-oxoisoindolin-2-yl)piperidin-2,6-one], with 0.1 to 10 nM; and `Cc1cccc(C)c1Nc1nn(C)c2nc(Nc3ccc4c(c3)CN(C(=O)/C(C#N)=C/C3CCN(C(=O)c5ccc6c(c5)CN(C5CCC(=O)NC5=O)C6=O)CC3)CC4)ncc12` (stereo not shown) [Compound 259, (E)-2-(7-((3-((2,6-Dimethylphenyl)amino)-1-methyl-1H-pyrazolo[3,4-d]pyrimidin-6-yl)amino)-1,2,3,4-tetrahydroisoquinoline-2-carbonyl)-3-(1-(2-(2,6-dioxopiperidin-3-yl)-1-oxoisoindoline-5-carbonyl)piperidin-4-yl)acrylonitrile], with 10 to 1000 nM.
`Cc1cccc(C)c1Nc1nn(C)c2nc(Nc3ccc4c(c3)CN(C(=O)/C(C#N)=C/C3CCN(C(=O)CNc5ccc6c(c5)C(=O)N(C5CCC(=O)NC5=O)C6=O)CC3)CC4)ncc12` (stereo not shown) [Compound 260, (E)-2-(7-((3-((2,6-Dimethylphenyl)amino)-1-methyl-1H-pyrazolo[3,4-d]pyrimidin-6-yl)amino)-1,2,3,4-tetrahydroisoquinoline-2-carbonyl)-3-(1-((2-(2,6-dioxopiperidin-3-yl)-1,3-dioxoisoindolin-5-yl)glycyl)piperidin-4-yl)acrylonitrile]: the DC50 fell in the range of 0.1 to 10 nM.
Then `Cc1cccc(C)c1Nc1nn(C)c2nc(Nc3ccc(C4CCN(C(=O)/C(C#N)=C/C5CCN(C(=O)CNc6ccc7c(c6)C(=O)N(C6CCC(=O)NC6=O)C7=O)CC5)CC4)cc3)ncc12` (stereo not shown) [Compound 261, (E)-2-(4-(4-((3-((2,6-Dimethylphenyl)amino)-1-methyl-1H-pyrazolo[3,4-d]pyrimidin-6-yl)amino)phenyl)piperidine-1-carbonyl)-3-(1-((2-(2,6-dioxopiperidin-3-yl)-1,3-dioxoisoindolin-5-yl)glycyl)piperidin-4-yl)acrylonitrile], with 0.1 to 10 nM; and `Cc1cccc(C)c1Nc1nn(C)c2nc(Nc3ccc(C4CCN(C(=O)C5CCN(c6ccc7c(c6)n(C)c(=O)n7C6CCC(=O)NC6=O)CC5)CC4)cc3)ncc12` (stereo not shown) [Compound 262, 3-(5-(4-(4-(4-((3-((2,6-Dimethylphenyl)amino)-1-methyl-1H-pyrazolo[3,4-d]pyrimidin-6-yl)amino)phenyl)piperidine-1-carbonyl)piperidin-1-yl)-3-methyl-2-oxo-2,3-dihydro-1H-benzo[d]imidazol-1-yl)piperidin-2,6-one], with 0.1 to 10 nM; and `Cc1cccc(C)c1Nc1nn(C)c2nc(Nc3ccc(F)c(C4=CCN(C(=O)C5CN(c6ccc7c(c6)C(=O)N(C6CCC(=O)NC6=O)C7=O)C5)CC4)c3)ncc12` (stereo not shown) [Compound 263, 5-(3-(4-(5-((3-((2,6-Dimethylphenyl)amino)-1-methyl-1H-pyrazolo[3,4-d]pyrimidin-6-yl)amino)-2-fluorophenyl)-1,2,3,6-tetrahydropyridine-1-carbonyl)azetidin-1-yl)-2-(2,6-dioxopiperidin-3-yl)isoindoline-1,3-dione], with 0.1 to 10 nM.
Next, `Cc1cccc(C)c1Nc1nn(C)c2nc(Nc3ccc4c(c3)CN(C(=O)C3CCN(c5ccc6c(c5)n(C)c(=O)n6C5CCC(=O)NC5=O)CC3)CC4)ncc12` (stereo not shown) [Compound 264, 3-(5-(4-(7-((3-((2,6-Dimethylphenyl)amino)-1-methyl-1H-pyrazolo[3,4-d]pyrimidin-6-yl)amino)-1,2,3,4-tetrahydroisoquinoline-2-carbonyl)piperidin-1-yl)-3-methyl-2-oxo-2,3-dihydro-1H-benzo[d]imidazol-1-yl)piperidin-2,6-one]: 0.1 to 10 nM; `Cc1cccc(C)c1Nc1nn(C)c2nc(Nc3ccc(N4CCN(CC5CCN(c6ccc7c(c6)C(=O)N(C6CCC(=O)NC6=O)C7=O)CC5)CC4)nn3)ncc12` (stereo not shown) [Compound 268, 5-(4-((4-(6-((3-((2,6-dimethylphenyl)amino)-1-methyl-1H-pyrazolo[3,4-d]pyrimidin-6-yl)amino)pyridazin-3-yl)piperazin-1-yl)methyl)piperidin-1-yl)-2-(2,6-dioxopiperidin-3-yl)isoindoline-1,3-dione]: 0.1 to 10 nM.
